Measurements reported in patent US3970643A, “5"-Amino-3',5"-dideoxybutirosin A and derivatives” (Parke, Davis & Company, priority 1975, dated 1976).
In brackets after ≈: the same amount, converted by molar mass.

Columns and labels:
Assay in all cases: MIC, microtitration in TSB, in vitro antibacterial screening
Assay type in all cases: cell-based
Esch. coli JR-76.2 = conditions: Escherichia coli, JR76.2
Excerpt: (§1) They show activity when tested by well-recognized in vitro anti-bacterial screening procedures.
(§2) ^b Butirosin and Gentamicin resistant

Pseudo. aerug. G-76 = conditions: Pseudomonas aeruginosa, Pseudo. aerug. G-76, butirosin and gentamicin resistant
Excerpt: as §1, §2

Pseudo. aerug. No. 28 = conditions: Pseudomonas aeruginosa
Excerpt: as §1

Pseudo. aerug. Aquilar = conditions: Pseudomonas aeruginosa, butirosin resistant
Excerpt: as §1

Pseudo. aerug. VAD12-7-7 = conditions: Pseudomonas aeruginosa
Excerpt: as §1

Pseudo. aerug. 58.38 = conditions: Pseudomonas aeruginosa
Excerpt: as §1

Pseudo. aerug. 733 = conditions: Pseudomonas aeruginosa
Excerpt: as §1

Pseudo. aerug. 74C-1 = conditions: Pseudomonas aeruginosa
Excerpt: as §1

Pseudo. aerug. LA-3399 = conditions: Pseudomonas aeruginosa
Excerpt: as §1

Entero. cloacae IMM-50 = conditions: Enterobacter cloacae, IMM50
Excerpt: as §1

Serr. marcescens IMM-5 = conditions: Serratia marcescens, IMM5
Excerpt: as §1

Staph auretis S18713 = conditions: Staph auretis S18713, butirosin resistant
Excerpt: as §1

Klebs. pneumoniae MGH-1 = conditions: Klebsiella pneumoniae, MGH1
Excerpt: as §1

Pseudo. aerug. UI-18 = conditions: Pseudomonas aeruginosa
Excerpt: as §1

Pseudo. aerug. 130 = conditions: Pseudomonas aeruginosa, Pseudo. aerug. 130, gentamicin resistant
Excerpt: as §1
^c Gentamicin resistant

Compound: NCC[C@H](O)C(=O)N[C@@H]1C[C@H](N)[C@@H](O[C@H]2O[C@H](CN)[C@@H](O)C[C@H]2N)[C@H](O[C@@H]2O[C@H](CN)[C@H](O)[C@H]2O)[C@H]1O [I carbonate, 5"-amino-3',5"-dideoxybutirosin A]
- MIC (Esch. coli JR-76.2): 25 µg/mL (≈ 46.4 µM)
- MIC (Pseudo. aerug. G-76): 12.5 µg/mL (≈ 23.2 µM)
- MIC (Pseudo. aerug. No. 28): 1.6 µg/mL (≈ 2.97 µM)
- MIC (Pseudo. aerug. Aquilar): 12.5 µg/mL (≈ 23.2 µM)
- MIC (Pseudo. aerug. VAD12-7-7): 3.1 µg/mL (≈ 5.76 µM)
- MIC (Pseudo. aerug. 58.38): 3.1 µg/mL (≈ 5.76 µM)
- MIC (Pseudo. aerug. 733): 3.1 µg/mL (≈ 5.76 µM)
- MIC (Pseudo. aerug. 74C-1): 3.1 µg/mL (≈ 5.76 µM)
- MIC (Pseudo. aerug. LA-3399): 12.5 µg/mL (≈ 23.2 µM)
- MIC (Entero. cloacae IMM-50): 6.3 µg/mL (≈ 11.7 µM)
- MIC (Serr. marcescens IMM-5): 25 µg/mL (≈ 46.4 µM)
- MIC (Staph auretis S18713): 3.1 µg/mL (≈ 5.76 µM)
- MIC (Klebs. pneumoniae MGH-1): 6.3 µg/mL (≈ 11.7 µM)
- MIC (Pseudo. aerug. UI-18): 3.1 µg/mL (≈ 5.76 µM)
- MIC (Pseudo. aerug. 130): 6.3 µg/mL (≈ 11.7 µM)
